Measurements from the supplement of paper PMC10307832.

Compound: O=c1ncccn1[C@@H]1O[C@H](CO)[C@@H](O)[C@H]1O [Zebularine] + CC(C)C[C@H](NC(=O)[C@H](Cc1ccccc1)NC(=O)c1cnccn1)B(O)O [Bortezomib] (partner 0.002 µM)
Assay: relative viability (nuclei count vs DMSO), 5 days (fraction); higher = more cells survive
Settings: first compound 100 µM
Outline: (§1)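 Relative viability is defined as nuclei in treated wells over nuclei in vehicle wells. Duplicate plates were run and medians reported. Lung cancer cell lines in 1536-well plates were dosed by pin tool one day after seeding, with one drug or with a fixed anchor-drug dose plus five library-drug doses (not always all listed) in √10 steps, and nuclei were counted after 5 days.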

Cell Line | relative viability
PC-14 | 0.0976
EKVX | 1.06

Compound: O=c1ncccn1[C@@H]1O[C@H](CO)[C@@H](O)[C@H]1O [Zebularine] + Cc1nc(Nc2ncc(C(=O)Nc3c(C)cccc3Cl)s2)cc(N2CCN(CCO)CC2)n1 [Dasatinib] (partner 0.075 µM)
Assay: as above
Settings: first compound 1 µM
Outline: as §1

Cell Line | relative viability
HOP-62 | 0.729
LU99A | 0.722
BEN | 0.32
HARA | 0.219
HCC-78 | 0.385
NCI-H322M | 0.257
LCLC-97TM1 | 0.868
NCI-H2009 | 0.371
A-427 | 0.841
NCI-H441 | 0.705
NCI-H661 | 0.833
NCI-H1734 | 0.546
NCI-H460 | 0.725
NCI-H2347 | 0.309
SK-LU-1 | 0.168
201T | 0.635
NCI-H1915 | 0.362

Cell Line | relative viability
HCC-827 | 0.3
LXF-289 | 0.233
NCI-H23 | 0.83
NCI-H647 | 0.202
CAL-12T | 0.462
NCI-H1651 | 0.399
EPLC-272H | 0.405
NCI-H2228 | 0.606
NCI-H1355 | 0.757
NCI-H3122 | 0.981
NCI-H1437 | 0.521
NCI-H1755 | 0.494
NCI-H2023 | 0.636
HCC-15 | 0.759
PC-14 | 0.301
EKVX | 0.577

Same assay, conditions: first compound 3.162 µM

Cell Line | relative viability
HOP-62 | 0.711
LU99A | 0.523
BEN | 0.303
HCC-78 | 0.428
NCI-H322M | 0.263
LCLC-97TM1 | 0.844
NCI-H2009 | 0.316
A-427 | 0.664
NCI-H441 | 0.619
NCI-H661 | 0.918
NCI-H1734 | 0.486
NCI-H460 | 0.527
NCI-H2347 | 0.322
SK-LU-1 | 0.184
201T | 0.586
NCI-H1915 | 0.328

Cell Line | relative viability
HCC-827 | 0.292
LXF-289 | 0.187
NCI-H23 | 0.876
NCI-H647 | 0.208
CAL-12T | 0.623
NCI-H1651 | 0.359
EPLC-272H | 0.356
NCI-H2228 | 0.518
NCI-H1355 | 0.746
NCI-H3122 | 0.79
NCI-H1437 | 0.462
NCI-H1755 | 0.452
NCI-H2023 | 0.572
HCC-15 | 0.577
PC-14 | 0.198
EKVX | 0.498

Same assay, conditions: first compound 10 µM

Cell Line | relative viability
HOP-62 | 0.421
LU99A | 0.44
BEN | 0.253
HCC-78 | 0.22
NCI-H322M | 0.237
LCLC-97TM1 | 0.509
NCI-H2009 | 0.263
A-427 | 0.434
NCI-H441 | 0.394
NCI-H661 | 0.868
NCI-H1734 | 0.333
NCI-H460 | 0.326
NCI-H2347 | 0.302
SK-LU-1 | 0.162
201T | 0.508
HCC-827 | 0.249
LXF-289 | 0.184
NCI-H23 | 0.497
NCI-H647 | 0.129
CAL-12T | 0.238
NCI-H1651 | 0.343
EPLC-272H | 0.255
NCI-H2228 | 0.322
NCI-H1355 | 0.525
NCI-H1437 | 0.333
NCI-H1755 | 0.342
NCI-H2023 | 0.423
HCC-15 | 0.494
PC-14 | 0.224

Same assay, conditions: first compound 31.62 µM

Cell Line | relative viability
HOP-62 | 0.462
LU99A | 0.325
BEN | 0.223
HARA | 0.35
HCC-78 | 0.37
NCI-H322M | 0.278
LCLC-97TM1 | 0.577
NCI-H2009 | 0.309
A-427 | 0.535
NCI-H441 | 0.41
NCI-H661 | 1.05
NCI-H1734 | 0.297
NCI-H460 | 0.304
NCI-H2347 | 0.227
SK-LU-1 | 0.172
201T | 0.6
NCI-H1915 | 0.374

Cell Line | relative viability
HCC-827 | 0.322
LXF-289 | 0.175
NCI-H23 | 0.774
NCI-H647 | 0.101
CAL-12T | 0.451
NCI-H1651 | 0.53
EPLC-272H | 0.34
NCI-H2228 | 0.448
NCI-H1355 | 0.617
NCI-H3122 | 0.889
NCI-H1437 | 0.531
NCI-H1755 | 0.49
NCI-H2023 | 0.392
HCC-15 | 0.486
PC-14 | 0.0811
EKVX | 0.575

Same assay, conditions: first compound 100 µM

Cell Line | relative viability
HOP-62 | 0.253
LU99A | 0.116
BEN | 0.146
HARA | 0.274
HCC-78 | 0.278
NCI-H322M | 0.246
LCLC-97TM1 | 0.315
NCI-H2009 | 0.231
A-427 | 0.2
NCI-H441 | 0.271
NCI-H661 | 0.819
NCI-H1734 | 0.281
NCI-H460 | 0.0827
NCI-H2347 | 0.254
SK-LU-1 | 0.144
201T | 0.548
NCI-H1915 | 0.287

Cell Line | relative viability
HCC-827 | 0.238
LXF-289 | 0.154
NCI-H23 | 0.791
NCI-H647 | 0.109
CAL-12T | 0.414
NCI-H1651 | 0.247
EPLC-272H | 0.28
NCI-H2228 | 0.222
NCI-H1355 | 0.458
NCI-H3122 | 0.918
NCI-H1437 | 0.459
NCI-H1755 | 0.435
NCI-H2023 | 0.213
HCC-15 | 0.27
PC-14 | 0.0854
EKVX | 0.573

Compound: O=c1ncccn1[C@@H]1O[C@H](CO)[C@@H](O)[C@H]1O [Zebularine] + O=C(CCCCCCC(=O)Nc1ccccc1)NO [Vorinostat] (partner 1 µM)
Assay: as above
Settings: first compound 1 µM
Outline: as §1

Cell Line | relative viability
HOP-62 | 0.717
LU99A | 0.536
BEN | 0.701
HARA | 0.613
HCC-78 | 0.535
NCI-H322M | 0.946
LCLC-97TM1 | 0.529
NCI-H2009 | 0.728
A-427 | 0.96
NCI-H441 | 1.03
NCI-H661 | 0.9
NCI-H1734 | 0.983
NCI-H460 | 0.652
NCI-H2347 | 0.608
SK-LU-1 | 0.891
201T | 0.944
NCI-H1915 | 0.538

Cell Line | relative viability
HCC-827 | 1.04
LXF-289 | 0.853
NCI-H23 | 0.661
NCI-H647 | 0.481
CAL-12T | 1.16
NCI-H1651 | 0.637
EPLC-272H | 0.419
NCI-H2228 | 0.825
NCI-H1355 | 0.692
NCI-H3122 | 1.14
NCI-H1437 | 1.02
NCI-H1755 | 0.809
NCI-H2023 | 0.946
HCC-15 | 0.986
PC-14 | 0.756
EKVX | 0.772

Same assay, conditions: first compound 3.162 µM

Cell Line | relative viability
HOP-62 | 0.474
LU99A | 0.513
BEN | 0.603
HARA | 0.541
HCC-78 | 0.462
NCI-H322M | 0.873
LCLC-97TM1 | 0.253
NCI-H2009 | 0.679
A-427 | 0.855
NCI-H441 | 0.908
NCI-H661 | 0.829
NCI-H1734 | 0.717
NCI-H460 | 0.702
NCI-H2347 | 0.653
SK-LU-1 | 0.725
201T | 0.921
NCI-H1915 | 0.53

Cell Line | relative viability
HCC-827 | 0.811
LXF-289 | 0.809
NCI-H23 | 0.587
NCI-H647 | 0.586
CAL-12T | 0.96
NCI-H1651 | 0.537
EPLC-272H | 0.32
NCI-H2228 | 0.671
NCI-H1355 | 0.585
NCI-H3122 | 0.937
NCI-H1437 | 0.899
NCI-H1755 | 0.892
NCI-H2023 | 0.561
HCC-15 | 0.9
PC-14 | 0.439
EKVX | 0.745

Same assay, conditions: first compound 10 µM

Cell Line | relative viability
HOP-62 | 0.365
LU99A | 0.414
BEN | 0.486
NCI-H322M | 1.21
LCLC-97TM1 | 0.33
NCI-H2009 | 0.625
A-427 | 0.703
NCI-H441 | 0.404
NCI-H661 | 0.673
NCI-H1734 | 0.425
NCI-H460 | 0.297
NCI-H2347 | 0.457
SK-LU-1 | 0.557
201T | 0.955
NCI-H1915 | 0.412
HCC-827 | 0.77
LXF-289 | 0.635
NCI-H647 | 0.165
CAL-12T | 0.452
NCI-H1651 | 0.501
NCI-H1355 | 0.479
NCI-H3122 | 0.792
NCI-H1437 | 0.727
NCI-H1755 | 0.614
NCI-H2023 | 0.509
HCC-15 | 0.665
PC-14 | 0.214

Same assay, conditions: first compound 31.62 µM

Cell Line | relative viability
HOP-62 | 0.203
LU99A | 0.379
BEN | 0.411
HARA | 0.323
HCC-78 | 0.444
NCI-H322M | 0.945
LCLC-97TM1 | 0.157
NCI-H2009 | 0.63
A-427 | 0.666
NCI-H441 | 0.317
NCI-H661 | 0.936
NCI-H1734 | 0.401
NCI-H460 | 0.298
NCI-H2347 | 0.431
SK-LU-1 | 0.555
201T | 1.05
NCI-H1915 | 0.607

Cell Line | relative viability
HCC-827 | 0.478
LXF-289 | 0.667
NCI-H23 | 0.542
NCI-H647 | 0.165
CAL-12T | 0.897
NCI-H1651 | 0.523
EPLC-272H | 0.42
NCI-H2228 | 0.412
NCI-H1355 | 0.544
NCI-H3122 | 1.09
NCI-H1437 | 0.911
NCI-H1755 | 1.11
NCI-H2023 | 0.518
HCC-15 | 0.759
PC-14 | 0.154
EKVX | 0.819

Same assay, conditions: first compound 100 µM

Cell Line | relative viability
HOP-62 | 0.22
LU99A | 0.174
BEN | 0.373
HARA | 0.213
HCC-78 | 0.337
NCI-H322M | 0.537
LCLC-97TM1 | 0.152
NCI-H2009 | 0.241
A-427 | 0.361
NCI-H441 | 0.362
NCI-H661 | 0.824
NCI-H1734 | 0.253
NCI-H460 | 0.166
NCI-H2347 | 0.387
SK-LU-1 | 0.487
201T | 1.02
NCI-H1915 | 0.585

Cell Line | relative viability
HCC-827 | 0.361
LXF-289 | 0.254
NCI-H23 | 0.509
NCI-H647 | 0.12
CAL-12T | 0.54
NCI-H1651 | 0.46
EPLC-272H | 0.178
NCI-H2228 | 0.377
NCI-H1355 | 0.372
NCI-H3122 | 0.996
NCI-H1437 | 0.55
NCI-H1755 | 0.648
NCI-H2023 | 0.216
HCC-15 | 0.436
PC-14 | 0.0885
EKVX | 0.635
